Assay in all cases: NCI-60 cell line screen, 48 h
Assay [1] relates to CCRF-CEM leukemia.
Assay [2] relates to COLO 205 colon.
Assay [3] has as its system HCT-116 colon.
Assay [4] relates to HT29 colon.
For assay [5], the system named is MALME-3M melanoma.
For assay [6], the system named is NCI-H226 lung.
Assay [7] has as its system NCI-H522 lung.
In assay [8] the test system is SF-539 CNS.
Assay [9] relates to SK-MEL-5 melanoma.
In assay [10] the test system is SR leukemia.

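Step 1: Grow cells in 96-well plates. Step 2: Expose to compound for 48 hours at 5 concentrations. Step 3: Interpolate endpoints linearly; if unreached, use highest concentration. GI50 marks 50% less growth. TGI: concentration producing complete growth inhibition.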

For the compound `O=[P+](O)c1cccnc1`, the TGI in assay [1], in [2], in [3], in assay [4], in [5] and in [6] was more than 100 µM in each case. Moreover, the TGI in [7], in assay [8], in assay [9] and in assay [10] was more than 100 µM throughout.

In the case of `CNC(=O)c1cc(Oc2ccc3nc(NC(=O)Nc4cc(C(F)(F)F)cc(C(F)(F)F)c4)sc3c2)ccn1`, the GI50 in assay [1] was 1.07 µM; in [2] it was 0.822 µM; in assay [3], 1.12 µM; in [4] it was 1.21 µM; in [5] it was 0.908 µM; in assay [6] it was 1.45 µM. For the same compound, the GI50 was 0.534 µM in [7], 1.24 µM in assay [8], 0.593 µM in [9] and 0.514 µM in [10]. In addition, the TGI in assay [1] worked out at 5.83 µM; in assay [2], 2.32 µM; in assay [3], 2.46 µM; in assay [4], 2.73 µM; in assay [5] it was 2.49 µM; in assay [6] it was 3.57 µM. Also, the TGI in assay [7] was 2.28 µM; in [8], 2.8 µM; in assay [9], 2.09 µM; in [10], 2.6 µM.

Take `COC(=O)Cc1nn2c(nc1=O)sc1ccc3ccccc3c12`: the TGI in [1], in [2], in [3], in assay [4], in assay [5] and in [6] was more than 100 µM throughout. The TGI in assay [7], in assay [8], in assay [9] and in assay [10] was more than 100 µM in each case.

Consider `Cc1cc(C)c(C(=O)/C(=C/c2ccccc2)c2ccccc2)c(C)c1`, for which the TGI in assay [1], in [2], in assay [3], in assay [4], in assay [5] and in assay [6] was more than 100 µM each time. In addition, the TGI is 77.2 µM in [7], more than 100 µM in [8], more than 100 µM in assay [9] and more than 100 µM in [10].

For `Cc1ccc(S(=O)(=O)OC2CSSCC2OS(=O)(=O)c2ccc(C)cc2)cc1` (stereo not drawn), the TGI is 28.3 µM in [1]; 26.6 µM in [2]; 26 µM in [3]; 22 µM in assay [4]; 34.3 µM in assay [5]; 33.6 µM in assay [6]. The TGI in assay [7] was found to be 22.8 µM; in assay [8] it was 22.8 µM; in [9] it was 29.7 µM; in assay [10], 38.8 µM.

Consider `CCOC(=O)Nc1cc(-c2ccc(C)c(NS(C)(=O)=O)c2)nn2c(C)nnc12`, for which the GI50 in assay [1] is 1.01 µM; in assay [2], 0.452 µM; in assay [3] it was 1.9 µM; in assay [4] it was 0.809 µM; in assay [5] it was 1.11 µM; in assay [6], 3.93 µM. The GI50 is 0.381 µM in [7], 1.86 µM in assay [8], 2.68 µM in assay [9] and 0.643 µM in [10]. The TGI in [1] was 14.9 µM; in assay [2], 1.55 µM; in assay [3], 15.3 µM; in assay [4], 14.1 µM; in assay [5], 41.5 µM; in assay [6], 24.4 µM. Further, the TGI in [7] was 3.22 µM; in [8] it was more than 100 µM; in [9], 10.4 µM; in assay [10], more than 100 µM.

Consider `COC1/C=C/OC2(C)Oc3c(C)c(O)c4c(O)c(c(C=NOC(c5ccccc5)c5ccccc5)c(O)c4c3C2=O)NC(=O)/C(C)=C/C=C/C(C)C(O)C(C)C(O)C(C)C(OC(C)=O)C1C` (stereo not drawn), for which the GI50 in assay [1] was 0.42 µM; in assay [2], 1.01 µM; in [3], 0.97 µM; in [4], 1.01 µM; in [5], 1.19 µM; in assay [6] it was 1.74 µM. Moreover, the GI50 is 1.18 µM in assay [7], 0.979 µM in [8], 0.805 µM in assay [9] and 1.94 µM in assay [10]. Further, the TGI in [1] was 3.62 µM; in assay [2] it was 2.06 µM; in [3], 1.86 µM; in assay [4], 2.13 µM; in assay [5], 3.38 µM; in assay [6] it was 8.76 µM. Also, the TGI is 3.97 µM in assay [7], 1.95 µM in assay [8], 1.52 µM in assay [9] and 5.93 µM in [10].

`CSc1nc(SC)c2c(C)cn(C3OC(C)C(O)C(O)C3O)c2n1` (stereo not drawn): the TGI in assay [1], in assay [2], in [3], in assay [4], in assay [5] and in [6] was more than 100 µM throughout. Further, the TGI in assay [7], in assay [8], in [9] and in [10] was more than 100 µM in each case.

For `O=C1NC(Cc2ccccc2)C(=O)N2CCCC12` (stereo not drawn), the TGI in [1], in [2], in [3], in [4], in assay [5] and in [6] was more than 100 µM throughout. Further, the TGI in assay [7], in [8], in assay [9] and in assay [10] was more than 100 µM throughout.

Take `Cn1c(=O)c(-c2c(Cl)cccc2Cl)cc2cnc(Nc3ccc(I)cc3)nc21`: the GI50 is 0.0224 µM in assay [1]; 0.0458 µM in assay [2]; 0.122 µM in assay [4]; 0.413 µM in assay [5]; 0.182 µM in [6]; 0.457 µM in assay [7]. Also, the GI50 in assay [8] was less than 0.0146 µM; in assay [9], less than 0.0104 µM; in assay [10], less than 0.01 µM. Further, the TGI in assay [1] was more than 100 µM; in assay [2] it was 0.324 µM; in [3], 0.305 µM; in assay [4], 1.56 µM; in [5], 3.09 µM; in [7] it was 1.89 µM. Further, the TGI in assay [8] was 0.114 µM; in assay [9] it was 0.157 µM; in assay [10], less than 0.01 µM.

For the compound `O=C(Nc1nc(-c2ccccc2Cl)cs1)c1cc(-c2ccc(Cl)cc2)nc2ccc(Cl)cc12`, the GI50 in [1] is 3.54 µM; in assay [2] it was 33.6 µM; in assay [3], 0.395 µM; in assay [4] it was 3.52 µM; in [5], 4.77 µM; in assay [6] it was 2.32 µM. Further, the GI50 in assay [7] was 3.48 µM; in [8], 2.12 µM; in assay [9] it was 2.51 µM; in assay [10], 3.15 µM. Moreover, the TGI was more than 100 µM in assay [1]; more than 100 µM in [2]; 13.2 µM in [3]; more than 100 µM in [4]; 47.7 µM in [5]; 8.54 µM in assay [6]. The TGI in assay [7] is 42.6 µM; in assay [8] it was 8.31 µM; in assay [9], 9.07 µM; in assay [10], more than 100 µM.

As to `CS(=O)(=O)c1ccc(-c2cnc(NCc3ccco3)n3cnnc23)cc1`, the GI50 in assay [1] is 38 µM; in [2] it was 28.7 µM; in assay [3] it was more than 100 µM; in assay [4], 28.8 µM; in assay [5], 27.5 µM; in assay [6], 49 µM. For the same compound, the GI50 in assay [7] is more than 100 µM; in assay [8], more than 100 µM; in assay [9], 31.7 µM; in assay [10] it was more than 100 µM. The TGI in [1], in assay [2], in assay [3], in assay [4], in [5] and in assay [6] was more than 100 µM in each case. Also, the TGI in assay [7], in [8], in assay [9] and in [10] was more than 100 µM each time.

With `COc1cc(=O)oc(/C=C/CO)c1C`, the TGI in assay [1], in [2], in assay [3], in assay [4], in assay [5] and in assay [6] was more than 100 µM in each case. The TGI in [7], in [8], in assay [9] and in [10] was more than 100 µM throughout.

These data come from PubChem BioAssay (NCI).
